Measurements taken from patent US10882838B2, “Cannabinergic compounds and uses thereof” (Northeastern University, priority 2012, dated 2021).
Like-named read-outs stand apart in the source and are kept apart here.

Legend:
CB1 receptor = CB1 receptor (Rattus norvegicus (Rat), UniProt P20272); assay: rCB1 competition-equilibrium binding with [3H]CP-55,940, rat brain membranes
Description: Frozen rat brains (CB1 source) are obtained from Pel-Freeze Biologicals (Rogers, Ak.) and stored at −80° C. until use. Membranes are prepared according to the method described by Dodd et al. and used in our laboratory as reported.
(§1) All the cannabinoids discussed in this invention are tested for their ability to bind to CB1 and CB2 receptors using membranes from rat brain or HEK293 cells expressing either mCB2 or hCB2, respectively via competition-equilibrium binding using [^3H]CP-55,940. Results are analyzed using nonlinear regression to determine ligand IC50 (Prism by GraphPad Software, Inc.), and Ki values are calculated from the IC50. IC50 and Ki values are determined from at least three independent experiments.

hCB2 receptor = hCB2 receptor (Homo sapiens (Human), UniProt P34972); assay: hCB2 competition-equilibrium binding with [3H]CP-55,940, membranes of HEK293 cells expressing hCB2
Description: (§2) HEK293 cells expressing hCB1 or hCB2 or mCB2 receptor are used for membrane preparations according to Abadji et al. The resulting pellet is resuspended in 10 mM Tris-chloride, pH 7.4, with 5 mM MgCl2 and 2 mM EDTA (TME), rapidly frozen in liquid nitrogen and stored at −80° C. for no longer than two months. Protein content is assayed by using the Bio-Rad protein assay according to the manufacturer's protocol.
as §1

[1] = Stability in plasma (half-life); assay type: in vitro ADME, rat or monkey; conditions: method: 200 μM in plasma, 37°; species of plasma not given
Description: The designed compounds carry a side chain that is susceptible to plasma esterase activity, inviting their rapid deactivation. Thus, it is important to characterize the rate of compound metabolism in isolated rat or monkey plasma. As a preliminary predictor of oral stability, this assay will also be done in buffers at pH 2 (to emulate the stomach) and pH 7.4 (physiological pH). Compounds (10 mM in DMSO) are diluted in plasma, acetonitrile or buffer to a concentration of 200 μM and incubated in a 37° shaking water bath for 2 hours. Samples are taken periodically, diluted 1:4 with acetonitrile and centrifuged to precipitate protein. The resulting supernatant is analyzed by HPLC to predict expected in vivo plasma half-lives.

mCB2 receptor = mCB2 receptor (Mus musculus (Mouse), UniProt P47936); assay: mCB2 competition-equilibrium binding with [3H]CP-55,940, membranes of HEK293 cells expressing mCB2
Description: as §2, §1

[2] = rat brain membranes, [3H]CP-55,940, read-out: rCB1 Ki
[3] = HEK293 cells expressing mCB2, [3H]CP-55,940, read-out: mCB2 Ki
[4] = HEK293 cells expressing hCB2, [3H]CP-55,940, read-out: hCB2 Ki

| Structure (SMILES) | Ki (CB1 receptor; [2]) [nM] | Ki (hCB2 receptor) [nM] | half-life at 200 μM [1] [min] | Ki (mCB2 receptor; [3]) [nM] | Ki (hCB2 receptor; [4]) [nM] | t 1/2 [1] [min] | Ki (CB1 receptor) [nM] | Ki (mCB2 receptor) [nM] |
| --- | --- | --- | --- | --- | --- | --- | --- | --- |
| CC1=CCC2[C@@H](C1)c1c(O)cc(C(C)(C)C(=O)OCCCCC#N)cc1OC2(C)C (stereo in doubt) [Compound 1.3, 4-cyanobutyl-2-((6aS, 10aR)-6a, 7, 10, 10a-tetrahydro-1-hydroxy-6,6,9-trimethyl-6H-benzo[c]chromen-3-yl)-2-methylpropanoate] | 0.7 | 0.8 | 40 | – | – | – | – | – |
| CC1=CC[C@H]2[C@@H](C1)c1c(O)cc(C(C)(C)C(=O)OCCCCBr)cc1OC2(C)C [Compound 1.2, 4-bromobutyl-2-((6aS,10aR)-6a,7,10,10a-tetrahydro-1-hydroxy-6,6,9-trimethyl-6H-benzochromen-3-yl)-2-methylpropanoate] | 1.2 | – | – | 0.6 | 0.8 | 15 | – | – |
| CC1=CC[C@@H]2[C@@H](C1)c1c(O)cc(C(C)(C)C(=O)OCCCCn3ccnc3)cc1OC2(C)C [Compound 1.6, 4-(1H-imidazol-1-yl)butyl 2-((6aR,10aR)-6a,7,10,10a-tetrahydro-1-hydroxy-6,6,9-trimethyl-6H-benzo[c]chromen-3-yl)-2-methylpropanoate] | 29.1 | – | 120 | 11.6 | 8.7 | – | – | – |
| CC1=CC[C@@H]2[C@@H](C1)c1c(O)cc(C(C)(C)C(=O)OCCCn3ccnc3)cc1OC2(C)C [Compound 1.10, 3-(1H-imidazol-1-yl)propyl-2-((6aR,10aR)-6a,7,10,10a-tetrahydro-1-hydroxy-6,6,9-trimethyl-6H-benzo[c]chromen-3-yl)-2-methylpropanoate] | 3.4 | – | 240 | 2 | 1.2 | – | – | – |
| CCCCOC(=O)C(C)c1cc(O)c2c(c1)OC(C)(C)[C@@H]1CC=C(C)C[C@@H]21 (stereo partly drawn) [Compound 1.12, Butyl 2-((6aR,10aR)-1-hydroxy-6,6,9-trimethyl-6a,7,10,10a-tetrahydro-6H-benzo[c]chromen-3-yl)propanoate] | 0.7 | – | 3 | 1.2 | 1 | – | – | – |
| CCCCOC(=O)[C@H](C)c1cc(O)c2c(c1)OC(C)(C)[C@@H]1CC=C(C)C[C@@H]21 [Compound 1.14, (R)-butyl 2-((6aR,10aR)-1-hydroxy-6,6,9-trimethyl-6a,7,10,10a-tetrahydro-6H-benzo[c]chromen-3-yl)propanoate] | 0.9 | – | 7 | 1.4 | 1.4 | – | – | – |
| CCCCOC(=O)[C@@H](C)c1cc(O)c2c(c1)OC(C)(C)[C@@H]1CC=C(C)C[C@@H]21 [Compound 1.16, (S)-butyl 2-((6aR,10aR)-1-hydroxy-6,6,9-trimethyl-6a,7,10,10a-tetrahydro-6H-benzo[c]chromen-3-yl)propanoate] | 2.4 | – | 6 | 1.3 | 1.5 | – | – | – |
| CC1=CC[C@@H]2[C@@H](C1)c1c(O)cc(C3(C(=O)OCCCCBr)CCC3)cc1OC2(C)C [Compound 1.18, 4-bromobutyl 1-((6aR,10aR)-1-hydroxy-6,6,9-trimethyl-6a,7,10,10a-tetrahydro-6H-benzo[c]chromen-3-yl)cyclobutanecarboxylate] | 0.3 | – | 50 | 3.7 | 0.7 | – | – | – |
| CC1=CC[C@@H]2[C@@H](C1)c1c(O)cc(C3(C(=O)OCCCCC#N)CCC3)cc1OC2(C)C [Compound 1.19, 4-cyanobutyl 1-((6aR,10aR)-1-hydroxy-6,6,9-trimethyl-6a,7,10,10a-tetrahydro-6H-benzo[c]chromen-3-yl)cyclo butanecarboxylate] | 0.9 | – | 107 | 1.5 | 1.8 | – | – | – |
| CCCCOC(=O)C1(c2cc(O)c3c(c2)OC(C)(C)[C@@H]2CC=C(C)C[C@@H]32)CCC1 [Compound 1.20, butyl 1-((6aR,10aR)-1-hydroxy-6,6,9-trimethyl-6a,7,10,10a-tetrahydro-6H-benzo[c]chromen-3-yl)cyclobutane carboxylate] | 0.7 | – | 40 | 0.7 | 0.4 | – | – | – |
| CC1=CC[C@@H]2[C@@H](C1)c1c(O)cc(C(C)(C)C(=O)OCCCCN3CCOCC3)cc1OC2(C)C [Compound 1.24, 4-morpholinobutyl 2-((6aR,10aR)-1-hydroxy-6,6,9-trimethyl-6a,7,10,10a-tetrahydro-6H-benzo[c]chromen-3-yl)-2-methylpropanoate] | 33.8 | – | 68 | 71.8 | 39.9 | – | – | – |
| CC1=CC[C@@H]2[C@@H](C1)c1c(O)cc(C(C)(C)C(=O)OCCCN3CCOCC3)cc1OC2(C)C [Compound 1.25, 3-morpholinopropyl 2-((6aR,10aR)-1-hydroxy-6,6,9-trimethyl-6a,7,10,10a-tetrahydro-6H-benzo[c]chromen-3-yl)-2-methylpropanoate] | – | 8.7 | 200 | – | – | – | 15.2 | 10.4 |
| CC(C)(C(=O)O)c1cc(O)c2c(c1)OC(C)(C)[C@@H]1CCC(=O)C[C@@H]21 [Compound 3.3, 2-((6aR,10aR)-6a,7,8,9,10,10a-hexahydro-1-hydroxy-6,6-dimethyl-9-oxo-6H-benzo[c]chromen-3-yl)-2-methylpropanoic Acid] | > 10000 | – | – | > 10000 | > 10000 | – | – | – |
| CCCCOC(=O)C(C)(C)c1cc(O)c2c(c1)OC(C)(C)[C@@H]1CCC(=O)C[C@@H]21 [Compound 3.4, Butyl-2-((6aR,10aR)-6a,7,8,9,10,10a-hexahydro-1-hydroxy-6,6-dimethyl-9-oxo-6H-benzo[c]chromen-3-yl)-2-methylpropanoate] | 2.2 | – | – | 7.2 | 6.2 | – | – | – |
| CC(C)(C(=O)O)c1cc(O)c2c(c1)OC(C)(C)[C@@H]1CC[C@@H](O)C[C@@H]21 [Compound 3.5, 2-((6aR,9R,10aR)-6a,7,8,9,10,10a-hexahydro-1,9-dihydroxy-6,6-dimethyl-6H-benzo[c]chromen-3-yl)-2-methylpropanoic Acid] | > 10000 | – | – | > 10000 | > 10000 | – | – | – |
| CC(C)(C(=O)O)c1cc(O)c2c(c1)OC(C)(C)[C@@H]1CC[C@H](O)C[C@@H]21 [Compound 3.7, 2-((6aR,9S,10aR)-6a,7,8,9,10,10a-hexahydro-1,9-dihydroxy-6,6-dimethyl-6H-benzo[c]chromen-3-yl)-2-methylpropanoic Acid] | > 10000 | – | – | > 10000 | > 10000 | – | – | – |
| CCCCOC(=O)C(C)(C)c1cc(O)c2c(c1)OC(C)(C)[C@@H]1CC[C@@H](CO)C[C@H]21 [Compound 3.9, Butyl 2-((6aR,9R,10aS)-1-hydroxy-9-(hydroxymethyl)-6,6-dimethyl-6a,7,8,9,10,10a-hexahydro-6H-benzo[c]chromen-3-yl)-2-methylpropanoate] | 2.4 | – | – | 4.3 | 6.5 | – | – | – |
| CCCCCCC(C)(C)c1cc(O)c2c(c1)OC(C)(C)[C@@H]1CCC(=O)OC[C@@H]21 [Compound 3.10, (5aR,11bR)-11-hydroxy-6,6-dimethyl-9-(2-methyloctan-2-yl)-4,5,5a,6-tetrahydro-1H-oxepino[4,3-c]chromen-3(11bH)-one] | – | – | 15 | – | – | – | – | – |
| CCOC(=O)C(C)(C)c1cc(OC)c(-c2cccc(C#N)c2)c(OC)c1 [Compound 4.1, Ethyl 2-(3′-cyano-2,6-dimethoxybiphenyl-4-yl)-2-methylpropanoate] | > 1000 | – | – | > 1000 | > 1000 | – | – | – |
| CCOC(=O)C(C)(C)c1cc(OC)c(-c2cc(C)cc(C)c2)c(OC)c1 [Compound 4.3, Ethyl 2-(2,6-dimethoxy-3′,5′-dimethylbiphenyl-4-yl)-2-methylpropanoate] | 1000 | – | – | 1000 | 1000 | – | – | – |
| CCOC(=O)C(C)(C)c1cc(O)c(-c2cc(C)cc(C)c2)c(O)c1 [Compound 4.4, Ethyl 2-(2,6-dihydroxy-3′,5′-dimethylbiphenyl-4-yl)-2-methylpropanoate] | 941 | – | – | 36 | 48.8 | – | – | – |
| CCOC(=O)C(C)(C)c1cc(O)c(-c2cc(C)cc(C)c2)c(OC)c1 [Compound 4.5, Ethyl 2-(2-hydroxy-6-methoxy-3′,5′-dimethylbiphenyl-4-yl)-2-methylpropanoate] | 1000 | – | – | 108 | 375 | – | – | – |
| CCOC(=O)C(C)(C)c1cc(OC)c(-c2cc(Cl)cc(Cl)c2)c(OC)c1 [Compound 4.6, Ethyl 2-(3′,5′-dichloro-2,6-dimethoxybiphenyl-4-yl)-2-methylpropanoate] | 1000 | – | – | 1000 | 1000 | – | – | – |
